Results published in patent US9790229B2, “Bruton's tyrosine kinase inhibitors” (priority 2009, dated 2017).

These compounds were tested against BTK (Homo sapiens (Human), UniProt Q06187) (assay: In vitro BTK kinase assay: BTK-POLYGAT-LS ASSAY). Details: read-out: IC50 (10 uM ATP); 10 uM ATP; in vitro Btk kinase assay, Example 41.
Sequence of BTK (Q06187 whole entry): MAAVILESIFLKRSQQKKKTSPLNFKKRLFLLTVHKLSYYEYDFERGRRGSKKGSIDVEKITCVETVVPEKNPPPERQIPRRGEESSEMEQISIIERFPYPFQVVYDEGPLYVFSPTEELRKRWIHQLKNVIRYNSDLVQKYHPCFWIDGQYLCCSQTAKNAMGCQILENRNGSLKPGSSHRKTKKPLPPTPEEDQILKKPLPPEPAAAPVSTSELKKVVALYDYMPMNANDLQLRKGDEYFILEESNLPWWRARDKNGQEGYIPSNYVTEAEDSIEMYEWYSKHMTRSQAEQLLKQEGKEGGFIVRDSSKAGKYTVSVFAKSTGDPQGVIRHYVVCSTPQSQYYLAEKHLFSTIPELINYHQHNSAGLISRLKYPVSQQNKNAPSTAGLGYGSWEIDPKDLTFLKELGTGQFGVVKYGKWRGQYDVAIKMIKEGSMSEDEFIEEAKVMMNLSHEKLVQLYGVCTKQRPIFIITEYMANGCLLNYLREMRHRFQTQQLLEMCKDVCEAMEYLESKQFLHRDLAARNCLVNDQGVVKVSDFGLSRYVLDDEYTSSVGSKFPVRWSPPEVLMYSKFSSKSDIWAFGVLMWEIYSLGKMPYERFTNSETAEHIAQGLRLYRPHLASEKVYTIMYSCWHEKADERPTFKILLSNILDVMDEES
`CC(C)(C)CNC1CCCN([C@@H]2CCCN(c3ncnc(N)c3F)C2)C1=O` (stereo partly drawn) [compound 292, (3′R)-1′-(6-Amino-5-fluoropyrimidin-4-yl)-3-(neopentylamino)-1,3′-bipiperidin-2-one] showed an IC50 of over 10 µM. In the case of `CC(=O)Nc1cc(N2CCCC(c3cccc(NC(=O)Nc4ccccc4)c3)C2)ncn1` (stereo not shown) [Cmpd 92, N-(6-(3-(3-(3-phenylureido)phenyl)piperidin-1-yl)pyrimidin-4-yl)acetamide], the IC50 is reported as over 10 µM. With `O=C(Nc1csc(C2CCCN(c3ncnc4[nH]ccc34)C2)n1)Nc1c(F)cc(F)cc1N1CCCC1` (stereo not shown) [compound 111, 1-(2-(1-(7H-pyrrolo[2,3-d]pyrimidin-4-yl)piperidin-3-yl)thiazol-4-yl)-3-(2,4-difluoro-6-(pyrrolidin-1-yl)phenyl)urea] the IC50 was under 0.1 µM. With `Nc1ncnc(N2CCC[C@@H](N3CC=CC[C@@H](Nc4cc(F)cc(Cl)c4)C3=O)C2)c1F` [compound 347, (R,Z)-1-((R)-1-(6-amino-5-fluoropyrimidin-4-yl)piperidin-3-yl)-3-(3-chloro-5-fluorophenylamino)-3,4-dihydro-1H-azepin-2(7H)-one] the IC50 was under 0.1 µM.
